# Source: ChEMBL document CHEMBL4665672, “Developing new hybrid scaffold for urease inhibition based on carbazole-chalcone conjugates: Synthesis, assessment of therapeutic potential and computational docking analysis” (Bioorg Med Chem, 2019)
# Legend:
# [1] = molecular target: Urease (Canavalia ensiformis) (UniProt P07374); assay: Inhibition of jack bean urease assessed as reduction in ammonia production at 0.5 mM using urea as substrate incubated for 15 mins by indophenol method
# Urease = Urease (Canavalia ensiformis, UniProt P07374); assay: Inhibition of jack bean urease assessed as reduction in ammonia production using urea as substrate incubated for 15 mins by indophenol method
# Chain of Urease (P07374 whole entry): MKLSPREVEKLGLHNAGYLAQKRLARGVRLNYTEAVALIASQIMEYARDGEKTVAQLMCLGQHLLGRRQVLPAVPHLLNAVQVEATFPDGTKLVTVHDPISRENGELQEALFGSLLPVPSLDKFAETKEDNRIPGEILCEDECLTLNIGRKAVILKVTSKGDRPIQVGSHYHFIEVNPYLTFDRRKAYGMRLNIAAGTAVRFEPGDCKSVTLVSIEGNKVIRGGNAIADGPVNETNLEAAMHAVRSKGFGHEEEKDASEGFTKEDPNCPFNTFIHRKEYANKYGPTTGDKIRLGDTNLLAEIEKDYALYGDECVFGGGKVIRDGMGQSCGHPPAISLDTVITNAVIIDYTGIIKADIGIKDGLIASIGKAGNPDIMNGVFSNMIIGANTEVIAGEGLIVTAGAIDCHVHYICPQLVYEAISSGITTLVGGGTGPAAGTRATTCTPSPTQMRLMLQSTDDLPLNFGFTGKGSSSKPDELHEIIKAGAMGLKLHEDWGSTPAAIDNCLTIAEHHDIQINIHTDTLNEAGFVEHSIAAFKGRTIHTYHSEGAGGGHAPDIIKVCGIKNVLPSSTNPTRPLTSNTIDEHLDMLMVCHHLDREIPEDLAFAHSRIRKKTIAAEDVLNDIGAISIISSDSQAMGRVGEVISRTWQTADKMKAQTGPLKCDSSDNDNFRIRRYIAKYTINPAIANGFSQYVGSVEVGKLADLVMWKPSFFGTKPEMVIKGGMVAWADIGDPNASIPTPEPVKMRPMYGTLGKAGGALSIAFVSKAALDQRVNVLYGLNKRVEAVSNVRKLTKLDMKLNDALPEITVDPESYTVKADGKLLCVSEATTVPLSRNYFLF
# Chain of Urease (Canavalia ensiformis) (P07374 whole entry, looked up): as the sequence (P07374 whole entry) above
SMILES,inhibition [1] [%],IC50 (Urease) [µM]
CCCCCCCCn1c2ccc(C(C)=O)cc2c2cc(C(=O)/C=C/c3ccc(N(C)C)cc3)ccc21,22.6,149
CCCCCCCCn1c2ccc(C(C)=O)cc2c2cc(C(=O)/C=C/c3ccccc3Br)ccc21,94.8,8.93
CCCCCCCCn1c2ccc(C(C)=O)cc2c2cc(C(=O)/C=C/c3cccc(Br)c3)ccc21,10.9,–
CCCCCCCCn1c2ccc(C(C)=O)cc2c2cc(C(=O)/C=C/c3ccccc3)ccc21,19.3,–
CCCCCCCCn1c2ccc(C(C)=O)cc2c2cc(C(=O)/C=C/c3ccc(OC)cc3)ccc21,98.5,6.88
CCCCCCCCn1c2ccc(C(C)=O)cc2c2cc(C(=O)/C=C/c3ccccc3[N+](=O)[O-])ccc21,18.6,–
CCCCCCCCn1c2ccc(C(C)=O)cc2c2cc(C(=O)/C=C/c3ccc([N+](=O)[O-])cc3)ccc21,29.3,–
CCCCCCCCn1c2ccc(C(C)=O)cc2c2cc(C(=O)/C=C/c3cccc([N+](=O)[O-])c3)ccc21,94.4,14.2
CCCCCCCCn1c2ccc(C(C)=O)cc2c2cc(C(=O)/C=C/c3cc(OC)c(OC)c(OC)c3)ccc21,74.5,150
CCCCCCCCn1c2ccc(C(C)=O)cc2c2cc(C(=O)/C=C/c3ccco3)ccc21,78.7,24.8
CCCCCCCCn1c2ccc(C(C)=O)cc2c2cc(C(=O)/C=C/c3cccc(OC)c3)ccc21,7.9,–
CCCCCCCCn1c2ccc(C(C)=O)cc2c2cc(C(=O)/C=C/c3ccc(Br)cc3)ccc21,24.9,–
CCCCCCCCn1c2ccc(C(C)=O)cc2c2cc(C(=O)/C=C/c3ccc(Cl)cc3)ccc21,95.1,24.7
CCCCCCCCn1c2ccc(C(C)=O)cc2c2cc(C(=O)/C=C/c3ccccc3Cl)ccc21,24.5,–
